Test: Lipophilicity, log P of the compound
Format: physicochemical
Details: octanol/water

logP: 4.4
Structure (SMILES): COc1nc(OCc2cccc(-c3ccccc3)c2C)ccc1CNCCNC(C)=O
